The record followed here is patent publication US20170334899A1, “AMINO-SUBSTITUTED ISOTHIAZOLES” (Bayer Pharma Aktiengesellschaft, priority 2014, published 2017).

For assay [1], the system named is human cervical tumor cell line HeLa (ATCC CCL-2). Briefly: SAC-Formation - Paclitaxel-Induced Assay. The assay is classed as cell-based. The settings on record: Homo sapiens, HeLa, 24 h, HeLa cells, paclitaxel 0.05 μM, test range 0.005 μM-20 μM, read-out: IC50 [mol/l] SAC-Formation - Paclitaxel-Induced Assay. Put shortly:
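Read-out is high-content imaging of anti-phospho-H3 Ser10 (mitosis) and Hoechst 33342 (DNA, cell number), with decreased mitotic fraction marking checkpoint breakthrough. Compounds (0.005–20 μM) and 0.05 μM paclitaxel co-added to overnight-plated HeLa for 24 h at 37° C; four-parameter Hill fit.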

In the next assay the target is T1, CDK2/CycE (Homo sapiens, UniProt P24941).
T1 construct: GST; purchased ProQinase GmbH (Freiburg, Germany); host or cells: insect cells (Sf9)
Briefly: CDK2/CycE kinase assay (TR-FRET). The assay is classed as biochemical. The settings on record: avg, read-out: CDK2 avg (IC50 [mol/l]). Summed up: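 Read-out is a TR-FRET 665/620 nm emission ratio from EDTA-stopped reactions detected with anti-pRB(pSer807/pSer811), Eu-labelled anti-mouse IgG and streptavidin-XL665, scaled between no-enzyme and uninhibited wells. Reaction: Sf9-expressed GST-CDK2/GST-CycE, 15 min compound preincubation, 10 μM ATP, 0.75 μM biotin-peptide, 25 min, 22° C., pH 8.0 Tris buffer.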
Background: In TR-FRET formats the signal depends on donor and acceptor labels being close together.

As to `Cc1nsc(Nc2cnc3ccccc3n2)c1C(=O)Nc1cccc(C(=O)N2CCN(C(=O)OC(C)(C)C)CC2)c1` [Example 55, tert-Butyl 4-[3-({[3-methyl-5-(quinoxalin-2-ylamino)-1,2-thiazol-4-yl]carbonyl}amino)-benzoyl]piperazine-1-carboxylate], the figures for the IC50 (in assay [1]; at CDK2/CycE) were 3.1 µM and at least 20 µM, respectively.

`COCCOc1ccc(NC(=O)c2c(C)nsc2Nc2nc3c(C(F)(F)F)cccc3s2)cn1` [Example 3, N-[6-(2-Methoxyethoxy)pyridin-3-yl]-3-methyl-5-{[4-(trifluoromethyl)-1,3-benzo-thiazol-2-yl]amino}-1,2-thiazole-4-carboxamide]: in assay [1], the IC50 turned out to be 0.13 µM. Consider `Cc1nsc(Nc2cnc3ccccc3n2)c1C(=O)Nc1cccc(NC(=O)C(F)(F)F)c1` [Example 432, 3-Methyl-5-(quinoxalin-2-ylamino)-N-{3-[(trifluoroacetyl)amino]phenyl}-1,2-thiazole-4-carboxamide], for which the IC50 in assay [1] is 1.2 µM; at CDK2/CycE, over 20 µM. Taken in the same sequence, the figures for `Cc1nsc(Nc2cnc(C(F)(F)F)cn2)c1C(=O)Nc1ccc(OCCN2CCC(F)(F)CC2)nc1` [Example 407, N-{6-[2-(4,4-Difluoropiperidin-1-yl)ethoxy]pyridin-3-yl}-3-methyl-5-{[5-(trifluoromethyl)pyrazin-2-yl]amino}-1,2-thiazole-4-carboxamide] were 0.079 µM and over 20 µM. With `Cc1nsc(Nc2cnc(C(F)(F)F)cn2)c1C(=O)Nc1ccc(F)c(OCC2CCN(CC(F)(F)F)C2)c1` (stereo not shown) [Example 318, N-(4-fluoro-3-{[1-(2,2,2-trifluoroethyl)pyrrolidin-3-yl]methoxy}phenyl)-3-methyl-5-{[5-(trifluoromethyl)pyrazin-2-yl]amino}-1,2-thiazole-4-carboxamide], on CDK2/CycE, the IC50 was over 20 µM. As for `Cc1nsc(Nc2cnc3ccccc3n2)c1C(=O)Nc1ccc(OCCCNC(=O)OC(C)(C)C)nc1` [Example 42, tert-Butyl (3-{[5-({[3-methyl-5-(quinoxalin-2-ylamino)-1,2-thiazol-4-yl]carbonyl}-amino)pyridin-2-yl]oxy}propyl)carbamate], the values for the IC50 (in assay [1]; at CDK2/CycE) were 1.7 µM and at least 20 µM, respectively. Taken in the same sequence, the figures for `Cc1nsc(Nc2cnc(C(F)(F)F)cn2)c1C(=O)Nc1ccc(OCCN(C)C(=O)OC(C)(C)C)nc1` [Example 429, tert-Butyl methyl{2-[(5-{[(3-methyl-5-{[5-(trifluoromethyl)pyrazin-2-yl]amino}-1,2-thiazol-4-yl)carbonyl]amino}pyridin-2-yl)oxy]ethyl}carbannate] were 0.26 µM and over 20 µM. Taken in the same sequence, the figures for `Cc1nsc(Nc2cnc(C(F)(F)F)cn2)c1C(=O)Nc1ccc(CCC2CCN(CCC(F)(F)F)CC2)nc1` [Example 420, 3-Methyl-5-{[5-(trifluoromethyl)pyrazin-2-yl]amino}-N-(6-{2-[1-(3,3,3-trifluoro-propyl)piperidin-4-yl]ethyl}pyridin-3-yl)-1,2-thiazole-4-carboxamide] were 0.24 µM and over 20 µM. The corresponding values for `Cc1nsc(Nc2cnc3ccccc3n2)c1C(=O)Nc1cccc(C(=O)N[C@H](C(=O)OC(C)(C)C)[C@@H](C)OC(C)(C)C)c1` [Example 57, tert-Butyl O-tert-butyl-N-[3-({[3-methyl-5-(quinoxalin-2-ylamino)-1,2-thiazol-4 yl]carbonyl}amino)-benzoyl]threoninate] are 1.2 µM and at least 20 µM.

In the case of `Cc1nsc(Nc2cnc(C(F)(F)F)cn2)c1C(=O)Nc1ccc(OC2CCN(C(=O)OC(C)(C)C)CC2)nc1` [Example 5, tert-Butyl 4-[(5-{[(3-methyl-5-{[5-(trifluoromethyl)pyrazin-2-yl]amino}-1,2-thiazol-4-yl)carbonyl]amino}pyridin-2-yl)oxy]piperidine-1-carboxylate], the values for the IC50 (in assay [1]; at CDK2/CycE) were 0.11 µM and at least 20 µM, respectively. The corresponding values for `Cc1nsc(Nc2ccc(C#N)cn2)c1C(=O)Nc1ccc(OC2CCCN(CCF)C2)nc1` (stereo not shown) [Example 38, 5-[(5-Cyanopyridin-2-yl)amino]-N-(6-{[1-(2-fluoroethyl)piperidin-3-yl]oxy}pyridin-3-yl)-3-methyl-1,2-thiazole-4-carboxamide] are 13 µM and at least 20 µM. On to `COCCOc1ccc(NC(=O)c2c(C)nsc2Nc2nc3c(C(F)(F)F)cccc3s2)cc1F` [Example 1, N-[3-Fluoro-4-(2-methoxyethoxy)phenyl]-3-methyl-5-{[4-(trifluoromethyl)-1,3-benzothiazol-2-yl]amino}-1,2-thiazole-4-carboxamide], for which the IC50 in assay [1] is 0.094 µM; at CDK2/CycE, at least 20 µM.

Take `Cc1nsc(Nc2cnc(C(F)(F)F)cn2)c1C(=O)Nc1ccc(F)c(OCCCNC(=O)C(F)(F)F)c1` [Example 427, N-(4-Fluoro-3-{3-[(trifluoroacetyl)amino]propoxy}phenyl)-3-methyl-5-{[5-(trifluoro-methyl)pyrazin-2-yl]amino}-1,2-thiazole-4-carboxamide]: the values for the IC50 (in assay [1]; at CDK2/CycE) were 0.92 µM and at least 20 µM, respectively. The corresponding values for `Cc1nsc(Nc2cc(C#N)ccn2)c1C(=O)Nc1ccc(OC2CCCNC2)nc1` (stereo not shown) [Example 35, 5-[(4-Cyanopyridin-2-yl)amino]-3-methyl-N-[6-(piperidin-3-yloxy)pyridin-3-yl]-1,2-thiazole-4-carboxamide] are 20 µM and at least 20 µM. Taken in the same sequence, the figures for `Cc1nsc(Nc2cnccn2)c1C(=O)Nc1ccc(OCCCNC(=O)OC(C)(C)C)nc1` [Example 47, tert-Butyl (3-{[5-({[3-methyl-5-(pyrazin-2-ylamino)-1,2-thiazol-4-yl]carbonyl}-amino)pyridin-2-yl]oxy}propyl)carbamate] were 13 µM and at least 20 µM. For `Cc1nsc(Nc2cnc(C(F)(F)F)cn2)c1C(=O)Nc1ccc(OCCCNC(=O)C(F)(F)F)nc1` [Example 428, 3-Methyl-N-(6-{3-[(trifluoroacetyl)amino]propoxy}pyridin-3-yl)-5-{[5-(trifluoro-methyl)pyrazin-2-yl]amino}-1,2-thiazole-4-carboxamide], the IC50 was 0.62 µM in assay [1] and over 20 µM at CDK2/CycE.

Take `Cc1nsc(Nc2cnc(C(F)(F)F)cn2)c1C(=O)Nc1ccc(F)c(O[C@H]2CCN(CC(F)(F)F)C2)c1` [Example 416, N-(4-Fluoro-3-{[(35)-1-(2,2,2-trifluoroethyl)pyrrolidin-3-yl]oxy}phenyl)-3-methyl-5-{[5-(trifluoromethyl)pyrazin-2-yl]amino}-1,2-thiazole-4-carboxamide]: the IC50 in assay [1] is 0.027 µM; on CDK2/CycE it was over 20 µM. `Cc1nsc(Nc2ccc(C#N)cn2)c1C(=O)Nc1ccc(OC2CCCNC2)nc1` (stereo not shown) [Example 37, 5-[(5-Cyanopyridin-2-yl)amino]-3-methyl-N-[6-(piperidin-3-yloxy)pyridin-3-yl]-1,2-thiazole-4-carboxamide]: the IC50 in assay [1] was 5.2 µM; on CDK2/CycE it was at least 20 µM. Taken in the same sequence, the figures for `Cc1nsc(Nc2cnc3ccccc3n2)c1C(=O)Nc1cccc(C(=O)OC(C)(C)C)c1` [Example 49, tert-Butyl 3-({[3-methyl-5-(quinoxalin-2-ylamino)-1,2-thiazol-4-yl]carbonyl}amino)-benzoate] were 0.41 µM and at least 20 µM. Taken in the same sequence, the figures for `Cc1nsc(Nc2nc3c(C(F)(F)F)cccc3s2)c1C(=O)Nc1ccc(OCCO)nc1` [Example 2, N-[6-(2-Hydroxyethoxy)pyridin-3-yl]-3-methyl-5-{[4-(trifluoromethyl)-1,3-benzo-thiazol-2-yl]amino}-1,2-thiazole-4-carboxamide] were 0.46 µM and at least 20 µM. Taken in the same sequence, the figures for `Cc1nsc(Nc2cnc(C(F)(F)F)cn2)c1C(=O)Nc1ccc(OCC2CCN(CCC(F)(F)F)CC2(F)F)nc1` (stereo not shown) [Example 402, N-(6-{[3,3-difluoro-1-(3,3,3-trifluoropropyl)piperidin-4-yl]methoxy}pyridin-3-yl)-3-methyl-5-{[5-(trifluoromethyl)pyrazin-2-yl]amino}-1,2-thiazole-4-carboxamide] were 3.4 µM and over 20 µM.

Regarding `Cc1nsc(Nc2ccc(C#N)cn2)c1C(=O)Nc1ccc(Nc2ccc(F)c(F)c2)nc1` [Example 433, 5-[(5-Cyanopyridin-2-yl)amino]-N-{6-[(3,4-difluorophenyl)amino]pyridin-3-yl}-3-methyl-1,2-thiazole-4-carboxamide], in assay [1], the IC50 stood at 1.3 µM. For the molecule `Cc1nsc(Nc2cnc(C(F)(F)F)cn2)c1C(=O)Nc1ccc(OCC2CCN(CC(F)F)CC2(F)F)nc1` (stereo not shown) [Example 401, N-(6-{[1-(2,2-difluoroethyl)-3,3-difluoropiperidin-4-yl]methoxy}pyridin-3-yl)-3-methyl-5-{[5-(trifluoromethyl)pyrazin-2-yl]amino}-1,2-thiazole-4-carboxamide], on CDK2/CycE, the IC50 is over 20 µM. As to `CCN1CC[C@H](Oc2ccc(NC(=O)c3c(C)nsc3Nc3cnc(C(F)(F)F)cn3)cn2)[C@H](F)C1` [Example 424, N-(6-{[(3R,4S)-1-Ethyl-3-fluoropiperidin-4-yl]oxy}pyridin-3-yl)-3-methyl-5-{[5-(trifluoromethyl)pyrazin-2-yl]amino}-1,2-thiazole-4-carboxamide], the IC50 in assay [1] is 0.32 µM.
